From patent US7071194B2, “Method for improving respiratory function and inhibiting muscular degeneration” (priority 2000, dated 2006)
Where “and” joins values, the source holds several entries; their conditions need not be identical. Identical values can stand only once.

Experiments:
[1] = rats; cited from earlier work
T8 SCI rats [2] = experiment: Respiratory function by head-out plethysmograph in conscious rats after T8 contusion SCI; assay type: in vivo, rat
Description: Female Sprague-Dawley rats (250–280 g and 360–390 g; Taconic, Germantown, N.Y.) were anesthetized with 4% chloral hydrate (360 mg/kg, i.p.). An incomplete spinal courd contusion injury was produced at T8 with a weight drop device (10 g×2.5 cm) as previously described (Wrathall et al., 1985). After SCI, manual expression of bladders was performed twice daily until a reflex bladder was established. Animal care also included housing the rats in pairs to reduce isolation-induced stress, maintaining ambient temperature at 22–25° C., and using highly absorbent bedding. No prophylactic antibiotics were given.
(§1) Experiments were conducted in unanesthetized, awake, spontaneously breathing rats at 24 hours prior to SCI, at 24 hours p.i. and weekly afterwards at 1,2,3, and 4 weeks p.i. (1) Acclimatization of the Animals. […] Animals were placed in the body cylinder of the plethysmograph (FIG. 1a) for 60 minutes per day for at least 5 days. […] (2) Non-Invasive Measurements of Respiratory Rate, Tidal Volume and Minute Ventilation. Non-invasive measurements of respiratory function in conscious rats were performed with a restrained head-out plethysmograph specially designed for rodents (BUXCO Electronics, Inc., Sharon, Conn.) (FIG. 1a). The plethymograph apparatus has a neck seal that prevents leakage of air from between the animal's neck and the plethymograph opening. Displacement of the thoracic wall produced by the animal's respiratory movements causes changes in the cylinder pressure, which results in air flowing across a pneumotachograph located on the wall of the cylinder. The pressure drop across the pneumotachograph is measured with a pressure transducer and is proportional to the flow. This signal is amplified and integrated into volume. From measurements of volume and flow, a computer and appropriate software provides respiratory parameters, such as respiratory rate (f), tidal volume (Vt), minute ventilation (Ve), peak inspiratory flow, peak expiratory flow, inspiratory time (Ti), expiratory time (Te), and accumulated volume. An additional opening on the wall of the box allows volume calibration by injecting and removing air from the box with a calibrated syringe.
(§2) The noise level in the laboratory was kept to a minimum in order not to startle the animals. Further, the animals were visually isolated from the investigators by means of a chamber made of an opaque material that surrounded and covered the front-end of the body plethysmograph (FIG. 1b). Baseline recordings lasted for 4 minutes. (3) Measurement of Ventilatory Response to Carbon Dioxide. For measurement of the ventilatory response to CO2, animals were exposed to air containing 7% CO2. The animals breathed from a funnel fixed in the front wall of a chamber made of an opaque material (FIG. 1b). The animals were exposed to the gas mixture containing 7% CO2 (mixed with 60% O2 and 33% N2) for 5 minutes with recording of respiratory activity for another 2 minutes (a total recording duration of 7 minutes).
(§3) The 5HT1A receptor antagonist, p-MPPI (RBI, Natick, Mass.) was also dissolved in 0.9% saline and given i.p. in a dose of 3 mg/kg (pH 7.4 and final volume of 0.5 ml). […] Vehicle solution (VEH) was 0.9% saline and also injected at i.p. (pH 7.4; volume: 0.5 ml/rat).
Baseline respiratory function was measured under room air ventilation and after the animal was stabilized inside a boy cylinder (FIGS. 1a and b) for 30 minutes at each time point prior to SCI and after injury. Immediately following the evaluation of baseline respiration, the animals were let to breathe air containing 7% CO2 for 7 minutes to monitor their ventilatory response to CO2 stimulus (Teng et al., 1998a and 1999).

normal conscious rats = experiment: Respiratory function by head-out plethysmograph in normal conscious rats; assay type: in vivo, rat
Description: as §1, §2, §3

T8 SCI rats [3] = experiment: Respiratory function by head-out plethysmograph in conscious rats after T8 contusion SCI; assay type: in vivo, rat; conditions: p-MPPI 2 mg/kg i.p., dose titration experiments
[4] = 24 hours p.i., 8-OH-DPAT 250 μg/kg i.p., time-course study, n=3
[5] = 24 hours post SCI, pre-treated with p-MPPI 3 mg/kg i.p. 20 min before, 7% CO2 at 16′ & 17′ after 8-OH-DPAT
[6] = 24 hours post SCI, pre-treated with p-MPPI 3 mg/kg i.p. 20 min before, baseline, 3 & 4 min post 8-OH-DPAT
[7] = 24 hours post SCI, pre-treated with p-MPPI 3 mg/kg i.p. 20 min before, baseline, 9 & 10 min post 8-OH-DPAT
[8] = 24 h p.i., 7% CO2 at 24 min after 8-OH-DPAT 250 μg/kg i.p.
[9] = 24 h p.i., baseline (room air), 3 & 4 min post 8-OH-DPAT 250 μg/kg i.p.
[10] = 24 h p.i., baseline (room air), 21 & 22 min post 8-OH-DPAT 250 μg/kg i.p.
[11] = 7 d p.i., 7% CO2 at 31′ & 32′ post 8-OH-DPAT 250 μg/kg i.p.
[12] = 7 d p.i., baseline (room air), 3 & 4 min post 8-OH-DPAT 250 μg/kg i.p.
[13] = 7 d p.i., baseline (room air), 21 & 22 min post 8-OH-DPAT 250 μg/kg i.p.
[14] = 7% CO2 at 31′ & 32′ after 8-OH-DPAT 250 μg/kg i.p.
[15] = baseline (room air), 3 & 4 min post 8-OH-DPAT 250 μg/kg i.p.
[16] = baseline (room air), 11 & 12 min post 8-OH-DPAT 250 μg/kg i.p.
[17] = baseline (room air), 21 & 22 min post 8-OH-DPAT 250 μg/kg i.p.
[18] = 24 hours p.i., p-MPPI 3 mg/kg i.p. 20 minutes before 8-OH-DPAT
[19] = 24 hours post SCI, baseline (room air), 3 & 4 min post p-MPPI 3 mg/kg i.p., rats 360-390 g
[20] = 24 hours post SCI, baseline (room air), 19 & 20 min post p-MPPI 3 mg/kg i.p., rats 360-390 g

## CCCN(CCC)C1CCc2cccc(O)c2C1 (stereo not drawn) [8-OH-DPAT, 8-hydroxy-2-(di-n-propylamino)tetralin]
[1]
  systematic half life (T1/2): ~50 min
T8 SCI rats [2]; 24 hours after SCI, 8-OH-DPAT 250 μg/kg i.p.
  effect on SCI-induced abnormal respiratory pattern: promptly and successfully reversed the injury-triggered respiratory abnormalities
T8 SCI rats [2]; 24 hours p.i., 8-OH-DPAT 250 μg/kg i.p.
  duration of initial rise of f above p.i. levels: about 20 minutes
T8 SCI rats [2]; [4]
  time for which a single dose normalized ventilatory response to breathing 7% CO2: more than 2 hours
  time for which improvement of baseline Ve (room air) was significant: 1 h
T8 SCI rats [2]; [5]
  Te (expiratory time): 0.32 ± 0.05
  Ti (inspiratory time): 0.19 ± 0.02
  Tv (tidal volume): 1.15 ± 0.21↓ ml
  Ve (minute ventilation): 143.1 ± 28.1↓ ml/min
  f (respiratory rate): 126.8 ± 14.4 breaths/min
T8 SCI rats [2]; [6]
  Te (expiratory time): 0.32 ± 0.08↓
  Ti (inspiratory time): 0.32 ± 0.02
  Tv (tidal volume): 0.85 ± 0.14↓ ml
  Ve (minute ventilation): 82.5 ± 10.9↓ ml/min
  f (respiratory rate): 99.4 ± 9.1↑ breaths/min
T8 SCI rats [2]; [7]
  Te (expiratory time): 0.28 ± 0.02↓
  Ti (inspiratory time): 0.31 ± 0.02
  Tv (tidal volume): 0.82 ± 0.11↓ ml
  Ve (minute ventilation): 88.3 ± 13.3↓ ml/min
  f (respiratory rate): 107.5 ± 1.9↑ breaths/min
T8 SCI rats [2]; [8]
  Ti (inspiratory time): 0.17 ± 0.01
  Tv (tidal volume): 1.52 ± 0.08 mL
  Ve (minute ventilation): 267.5 ± 21.8 mL/min
  f (respiratory rate): 175.9 ± 9.7 breaths/min
T8 SCI rats [2]; [9]
  Te (expiratory time): 0.25 ± 0.02↓
  Ti (inspiratory time): 0.19 ± 0.01
  Tv (tidal volume): 0.96 ± 0.08 mL
  Ve (minute ventilation): 149.9 ± 15.6↑ ml/min
  f (respiratory rate): 155.5 ± 8.7↑ breaths/min
T8 SCI rats [2]; [10]
  Te (expiratory time): 0.47 ± 0.02
  Ti (inspiratory time): 0.18 ± 0.01
  Tv (tidal volume): 0.80 ± 0.06 mL
  Ve (minute ventilation): 81.3 ± 10.9 mL/min
  f (respiratory rate): 98.5±3.7 breaths/min and 98.5 ± 5.18 breaths/min
T8 SCI rats [2]; 7 days p.i., 8-OH-DPAT 250 μg/kg i.p.
  effect on SCI-induced abnormal respiratory pattern: restored this abnormal pattern of breathing to normal
T8 SCI rats [2]; [11]
  Te (expiratory time): 0.17 ± 0.01
  Ti (inspiratory time): 0.16 ± 0.01
  Tv (tidal volume): 1.79 ± 0.35 mL
  Ve (minute ventilation): 327.2 ± 53.7↑ ml/min
  f (respiratory rate): 184.6 ± 6.6↑ breaths/min
T8 SCI rats [2]; [12]
  Te (expiratory time): 0.26 ± 0.03↓
  Ti (inspiratory time): 0.16 ± 0.01
  Tv (tidal volume): 1.11 ± 0.05 mL
  Ve (minute ventilation): 172.1 ± 17.1↑ ml/min
  f (respiratory rate): 155.2 ± 8.9↑ breaths/min
T8 SCI rats [2]; [13]
  Te (expiratory time): 0.32 ± 0.02↓
  Ti (inspiratory time): 0.15 ± 0.01
  Tv (tidal volume): 0.79 ± 0.04 mL
  Ve (minute ventilation): 103.0 ± 2.1↑ ml/min
  f (respiratory rate): 131.7 ± 7.7↑ breaths/min
Normal conscious rats; [14]
  Te (expiratory time): 0.23 ± 0.03
  Ti (inspiratory time): 0.19 ± 0.01
  Tv (tidal volume): 1.50 ± 0.14 mL
  Ve (minute ventilation): 239.3 ± 48.9 mL/min
  f (respiratory rate): 155.6 ± 18.5 breaths/min
Normal conscious rats; 8-OH-DPAT 250 μg/kg i.p.
  duration of increase in baseline Vt: 4 min
Normal conscious rats; 8-OH-DPAT 250 μg/kg i.p., to last minute of observation
  duration of stimulating effect on f: ≥ 23 min
Normal conscious rats; [15]
  Te (expiratory time): 0.25 ± 0.09↓
  Ti (inspiratory time): 0.19 ± 0.04
  Tv (tidal volume): 1.14 ± 0.08↑ ml
  Ve (minute ventilation): 198.6 ± 32.9↑ ml/min
  f (respiratory rate): 177.5 ± 36.2↑ breaths/min
Normal conscious rats; [16]
  Te (expiratory time): 0.30 ± 0.07↓
  Ti (inspiratory time): 0.16 ± 0.02
  Tv (tidal volume): 0.92 ± 0.05 mL
  Ve (minute ventilation): 138.6 ± 27.6↑ ml/min
  f (respiratory rate): 149.8 ± 26.5↑ breaths/min
Normal conscious rats; [17]
  Te (expiratory time): 0.41 ± 0.08↓
  Ti (inspiratory time): 0.18 ± 0.02
  Tv (tidal volume): 0.84 ± 0.02 mL
  Ve (minute ventilation): 112.9 ± 15.2↑ ml/min
  f (respiratory rate): 134.4 ± 21.2↑ breaths/min
Normal conscious rats; starting at 24 minutes after 8-OH-DPAT
  ventilatory response to 7% CO2 challenge: did not significantly alter

## COc1ccccc1N1CCN(CCN(C(=O)c2ccc(I)cc2)c2ccccn2)CC1 [p-MPPI, 4-(2′-methoxyphenyl)-1-[2′-[N-(2″-pyridinyl)-p-iodobenzamido]ethyl]piperazine]
T8 SCI rats [3]
  block of stimulating effects of 8-OH-DPAT on respiratory function: substantially block
T8 SCI rats [2]; [18]
  effect of pre-treatment on 8-OH-DPAT effects on respiration: significantly suppressed
  effect of pre-treatment on 8-OH-DPAT stimulation of ventilatory response to 7% CO2: significantly blocked
T8 SCI rats [2]; [19]
  Te (expiratory time): 0.28 ± 0.02↓
  Ti (inspiratory time): 0.33 ± 0.01
  Tv (tidal volume): 0.75 ± 0.08↓ ml
  Ve (minute ventilation): 76.9 ± 4.6↓ ml/min
  f (respiratory rate): 103.2 ± 5.4↑ breaths/min
T8 SCI rats [2]; [20]
  Te (expiratory time): 0.54 ± 0.10
  Ti (inspiratory time): 0.28 ± 0.04
  Tv (tidal volume): 0.77 ± 0.08↓ ml
  Ve (minute ventilation): 57.8 ± 4.1↓ ml/min
  f (respiratory rate): 76.2 ± 7.7 breaths/min
Normal conscious rats; p-MPPI 3 mg/kg i.p., n=3
  effect of p-MPPI per se on respiratory function: No significant impacts
